Legend:
Test in all cases: relative viability (nuclei count vs DMSO), 5 days (fraction); higher = more cells survive
BAM7 + Vorinostat = compound: CCOC1=CC=CC=C1N=NC2=C(NN(C2=O)C3=NC(=CS3)C4=CC=CC=C4)C [BAM7] + O=C(CCCCCCC(=O)Nc1ccccc1)NO [Vorinostat] (partner 1 µM)
Summary of the method: (§1)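 Medians of duplicate plates are given as relative viability. That measure is the nuclei count in treated wells divided by the count in vehicle wells. Counts were taken on 4× images of lung cancer cell lines in 1536-well plates, 5 days after pin-tool dosing the day after seeding with one drug alone or a fixed anchor-drug dose plus five library-drug doses (not always all listed) in √10 steps.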

BAM7 + Decitabine = compound: CCOC1=CC=CC=C1N=NC2=C(NN(C2=O)C3=NC(=CS3)C4=CC=CC=C4)C [BAM7] + Nc1ncn([C@H]2C[C@H](O)[C@@H](CO)O2)c(=O)n1 [Decitabine] (partner 2 µM)
Summary of the method: as §1

BAM7 + Foretinib = compound: CCOC1=CC=CC=C1N=NC2=C(NN(C2=O)C3=NC(=CS3)C4=CC=CC=C4)C [BAM7] + COc1cc2c(Oc3ccc(NC(=O)C4(C(=O)Nc5ccc(F)cc5)CC4)cc3F)ccnc2cc1OCCCN1CCOCC1 [Foretinib] (partner 0.25 µM)
Summary of the method: as §1

[1] = compound: CCn1c(-c2nonc2N)nc2c(C#CC(C)(C)O)ncc(OC[C@H]3CCCNC3)c21 + CC1(C)CCC(c2ccc(Cl)cc2)=C(CN2CCN(c3ccc(C(=O)NS(=O)(=O)c4ccc(N[C@H](CCN5CCOCC5)CSc5ccccc5)c(S(=O)(=O)C(F)(F)F)c4)cc3)CC2)C1 [Navitoclax] (partner 0.5 µM)
Summary of the method: as §1

Cell Line	relative viability (BAM7 + Vorinostat; first compound 0.5 µM)	relative viability (BAM7 + Vorinostat; first compound 5 µM)	relative viability (BAM7 + Vorinostat; first compound 15.81 µM)	relative viability (BAM7 + Vorinostat; first compound 50 µM)	relative viability (BAM7 + Decitabine; first compound 0.5 µM)	relative viability (BAM7 + Decitabine; first compound 5 µM)	relative viability (BAM7 + Decitabine; first compound 15.81 µM)	relative viability (BAM7 + Decitabine; first compound 50 µM)	relative viability (BAM7 + Foretinib; first compound 0.5 µM)	relative viability (BAM7 + Foretinib; first compound 5 µM)	relative viability (BAM7 + Foretinib; first compound 15.81 µM)	relative viability (BAM7 + Foretinib; first compound 50 µM)	relative viability ([1]; first compound 0.01 µM)	relative viability ([1]; first compound 0.03162 µM)	relative viability ([1]; first compound 0.1 µM)	relative viability ([1]; first compound 0.3162 µM)	relative viability ([1]; first compound 1 µM)
201T	0.797	0.78	0.716	0.71	0.844	0.887	0.837	0.926	0.789	0.948	0.832	0.823	1.21	1.22	1.26	1.19	1.17
A549	–	–	–	–	0.288	0.29	0.251	0.288	1	1.1	0.93	0.989	1.16	1.35	1.28	1.08	1.06
A-427	0.829	0.876	0.834	0.852	0.531	0.551	0.543	0.569	1.11	1.07	1.05	1.05	0.941	0.955	0.913	0.973	1.02
ABC-1	1.04	1.45	0.983	1.18	1.06	0.983	1.34	1.06	1.05	1.17	0.95	1.19	–	–	–	–	–
BEN	0.573	0.61	0.523	0.544	0.726	0.741	0.673	0.905	0.694	0.639	0.634	0.618	0.0596	0.0766	0.0603	0.0534	0.0741
CAL-12T	0.794	0.788	0.751	0.655	–	–	–	–	1.22	1.18	1.09	1.23	1.24	1.22	1.3	1.33	1.06
COR-L23	0.434	0.379	0.433	0.52	0.428	0.453	0.461	0.468	0.891	1.01	0.897	0.981	0.838	1.05	1.01	0.968	1.03
Calu-6	–	–	–	–	–	–	–	–	0.939	0.951	0.891	0.893	0.75	0.797	0.827	0.86	0.983
EBC-1	–	–	–	–	–	–	–	–	0.0974	0.103	0.0984	0.102	0.393	0.433	0.358	0.235	0.188
HCC-44	1.02	1.11	1.04	1.07	0.96	0.938	0.926	0.949	–	–	–	–	0.938	0.956	0.944	0.851	0.981
IA-LM	0.874	1.03	0.389	0.553	–	–	–	–	1.36	1.2	1.03	1.21	0.76	0.66	0.929	0.576	0.313
LCLC-103H	0.781	0.804	0.764	0.781	0.751	0.77	0.709	0.708	0.693	0.741	0.739	0.777	–	–	–	–	–
NCI-H358	–	0.644	0.528	0.667	–	0.199	0.232	0.224	0.834	0.84	0.642	0.634	–	–	–	–	–
NCI-H522	0.911	0.851	0.963	0.977	0.729	0.638	0.687	0.671	–	–	–	–	–	–	–	–	–
NCI-H650	0.541	0.531	0.518	0.492	0.297	0.323	0.315	0.448	0.988	1.14	1	0.992	–	–	–	–	–
NCI-H661	0.82	0.843	0.784	0.774	0.597	0.579	0.611	0.579	1.02	1.08	0.964	1.11	–	–	–	–	–
NCI-H1299	–	–	–	–	–	–	–	–	1.07	1.18	1.08	1.11	1.04	1.06	1.02	1.03	1.08
NCI-H1563	–	–	–	–	–	–	–	–	0.898	0.82	0.868	0.963	–	–	–	–	–
NCI-H1648	0.283	0.6	0.408	0.348	0.395	0.642	0.432	0.404	–	–	–	–	–	–	–	–	–
NCI-H1703	–	–	–	–	–	–	–	–	0.329	0.42	0.393	0.326	1.12	0.959	0.857	1.04	0.505
NCI-H1792	–	–	–	–	0.557	0.458	0.48	0.516	–	–	–	–	0.722	0.501	0.619	0.62	0.604
NCI-H2228	0.448	0.586	0.552	0.59	–	–	–	–	1.04	0.964	0.879	1.16	0.728	0.673	0.791	0.634	0.787
NCI-H2342	0.72	0.736	0.709	0.8	0.821	0.669	0.594	0.551	1.01	1.04	0.921	1.03	–	–	–	–	–
SW 900	–	0.461	–	0.589	–	0.465	–	0.494	0.933	0.755	0.774	0.863	–	–	–	–	–
